This note sets out measurements from ChEMBL document CHEMBL1201862, “PubChem BioAssay data set” (2004).

Calls of active or inactive are those of the source.

In one data set the target is Cytochrome P450 3A4 (Homo sapiens, UniProt P08684).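 Also: CYP3A4 tested as one member of a cytochrome P450 panel screen.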
For a further data set, the target named is Cytochrome P450 2C9 (Homo sapiens, UniProt P11712).
The target in data set [1] is G-protein coupled receptor 55 (Homo sapiens, UniProt Q9Y2T6). Kind of data set: inhibition of LPI-stimulated GPR55 beta-arrestin translocation – imaging, U2OS, beta-arrestin-GFP, LPI agonist, primary screen (AID 2013).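 Also: antagonist potency measured as reduced agonist-driven arrestin aggregation.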 Format: functional.
Data set [2] has as its target T1, High affinity choline transporter 1 (Homo sapiens, UniProt Q9GZV3).
T1 sequence (Q9GZV3 whole entry): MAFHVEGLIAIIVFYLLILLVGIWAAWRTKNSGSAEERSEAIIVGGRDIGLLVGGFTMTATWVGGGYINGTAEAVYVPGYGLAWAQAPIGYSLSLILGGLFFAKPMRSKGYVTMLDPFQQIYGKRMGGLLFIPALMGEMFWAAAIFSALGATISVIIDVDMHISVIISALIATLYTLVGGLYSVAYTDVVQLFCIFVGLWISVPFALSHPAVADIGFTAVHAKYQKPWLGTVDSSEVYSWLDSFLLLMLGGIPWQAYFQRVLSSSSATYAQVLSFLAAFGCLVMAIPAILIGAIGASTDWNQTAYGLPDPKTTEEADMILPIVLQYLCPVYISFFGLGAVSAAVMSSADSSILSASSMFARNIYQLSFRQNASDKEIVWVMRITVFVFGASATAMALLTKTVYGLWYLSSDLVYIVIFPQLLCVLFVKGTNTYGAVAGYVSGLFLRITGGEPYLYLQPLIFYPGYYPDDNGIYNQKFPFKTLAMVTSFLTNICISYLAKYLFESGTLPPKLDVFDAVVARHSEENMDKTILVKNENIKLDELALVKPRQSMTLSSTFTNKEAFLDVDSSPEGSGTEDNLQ
As to the kind of experiment: human choline transporter blockers, potency – cell-based, 5-point CRC, membrane potential dye, dose response (AID 504840). It is filed as functional.

The target of data set [3] is Voltage-dependent T-type calcium channel subunit alpha-1H (Homo sapiens, UniProt O95180). Format: functional.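 Also: channel activity triggered by adding a high calcium stimulation buffer.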
The next data set deals with T2, Cytochrome P450 1A2 (Homo sapiens, UniProt P05177).
T2 sequence (P05177 whole entry): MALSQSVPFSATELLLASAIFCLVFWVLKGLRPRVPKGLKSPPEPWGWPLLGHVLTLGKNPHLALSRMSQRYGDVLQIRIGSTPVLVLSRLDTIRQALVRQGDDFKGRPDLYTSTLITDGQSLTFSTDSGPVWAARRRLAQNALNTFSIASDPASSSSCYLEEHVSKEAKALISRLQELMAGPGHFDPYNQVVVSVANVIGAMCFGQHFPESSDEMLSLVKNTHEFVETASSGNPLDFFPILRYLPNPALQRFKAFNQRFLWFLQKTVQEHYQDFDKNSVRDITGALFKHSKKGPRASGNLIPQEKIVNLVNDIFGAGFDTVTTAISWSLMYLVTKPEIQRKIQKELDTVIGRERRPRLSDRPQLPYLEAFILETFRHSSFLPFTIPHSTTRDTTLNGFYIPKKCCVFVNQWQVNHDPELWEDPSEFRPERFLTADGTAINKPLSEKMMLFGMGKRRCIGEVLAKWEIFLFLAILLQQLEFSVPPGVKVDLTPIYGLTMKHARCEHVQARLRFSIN

Data set [4] is described as follows: Trypanosoma cruzi growth suppression in host cells – NIH3T3 host cells, beta-gal luminescence, confirmation (AID 2044).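 Also: intracellular parasites grown in NIH/3T3 mouse fibroblasts as host cells; luminescent beta-galactosidase reporter signal from transgenic T. cruzi replicating inside host cells; inhibitors lower the luminescence signal.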 Format: functional, cell-based.
Data set [5] addresses T3, Replicative DNA helicase DnaB (Mycobacterium tuberculosis, UniProt P9WMR3).
T3 sequence (P9WMR3 whole entry): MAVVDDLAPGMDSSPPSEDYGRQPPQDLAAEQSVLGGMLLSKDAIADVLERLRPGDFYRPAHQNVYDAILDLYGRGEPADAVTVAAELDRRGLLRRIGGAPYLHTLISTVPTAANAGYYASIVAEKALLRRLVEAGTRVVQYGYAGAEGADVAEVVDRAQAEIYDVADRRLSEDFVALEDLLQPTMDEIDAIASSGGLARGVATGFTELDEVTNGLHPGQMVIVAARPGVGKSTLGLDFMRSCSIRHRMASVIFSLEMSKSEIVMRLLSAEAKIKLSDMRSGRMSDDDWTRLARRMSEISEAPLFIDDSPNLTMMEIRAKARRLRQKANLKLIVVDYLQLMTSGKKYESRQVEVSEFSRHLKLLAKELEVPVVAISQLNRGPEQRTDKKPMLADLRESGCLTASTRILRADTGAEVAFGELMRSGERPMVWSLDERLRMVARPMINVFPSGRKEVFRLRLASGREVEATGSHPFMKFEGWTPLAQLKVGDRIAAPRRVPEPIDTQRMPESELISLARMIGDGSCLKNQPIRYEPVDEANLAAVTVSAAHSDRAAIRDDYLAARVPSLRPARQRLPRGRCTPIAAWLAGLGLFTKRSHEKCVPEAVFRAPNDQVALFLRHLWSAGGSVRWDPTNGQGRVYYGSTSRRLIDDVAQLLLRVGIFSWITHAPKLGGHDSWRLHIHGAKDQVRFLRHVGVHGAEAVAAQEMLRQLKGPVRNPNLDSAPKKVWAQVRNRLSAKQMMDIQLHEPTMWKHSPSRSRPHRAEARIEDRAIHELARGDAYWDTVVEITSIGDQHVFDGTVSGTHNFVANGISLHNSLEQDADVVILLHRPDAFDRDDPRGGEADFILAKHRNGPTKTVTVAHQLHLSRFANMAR
Kind of data set: DnaB intein splicing inhibitors, dose response, biochemical, cell-free fluorescence (AID 449749). Format: functional.

Data set [6] is described as follows: NIH3T3 cell viability loss – ATP luminescence, mouse fibroblasts, counter-screen, dose response (AID 2010).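 Also: cells exposed to compound for about 90 hours before reading.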 Format: functional, cell-based.
The target of another data set is T4, Protein RecA (Mycobacterium tuberculosis, UniProt P9WHJ3).
T4 sequence (P9WHJ3 whole entry): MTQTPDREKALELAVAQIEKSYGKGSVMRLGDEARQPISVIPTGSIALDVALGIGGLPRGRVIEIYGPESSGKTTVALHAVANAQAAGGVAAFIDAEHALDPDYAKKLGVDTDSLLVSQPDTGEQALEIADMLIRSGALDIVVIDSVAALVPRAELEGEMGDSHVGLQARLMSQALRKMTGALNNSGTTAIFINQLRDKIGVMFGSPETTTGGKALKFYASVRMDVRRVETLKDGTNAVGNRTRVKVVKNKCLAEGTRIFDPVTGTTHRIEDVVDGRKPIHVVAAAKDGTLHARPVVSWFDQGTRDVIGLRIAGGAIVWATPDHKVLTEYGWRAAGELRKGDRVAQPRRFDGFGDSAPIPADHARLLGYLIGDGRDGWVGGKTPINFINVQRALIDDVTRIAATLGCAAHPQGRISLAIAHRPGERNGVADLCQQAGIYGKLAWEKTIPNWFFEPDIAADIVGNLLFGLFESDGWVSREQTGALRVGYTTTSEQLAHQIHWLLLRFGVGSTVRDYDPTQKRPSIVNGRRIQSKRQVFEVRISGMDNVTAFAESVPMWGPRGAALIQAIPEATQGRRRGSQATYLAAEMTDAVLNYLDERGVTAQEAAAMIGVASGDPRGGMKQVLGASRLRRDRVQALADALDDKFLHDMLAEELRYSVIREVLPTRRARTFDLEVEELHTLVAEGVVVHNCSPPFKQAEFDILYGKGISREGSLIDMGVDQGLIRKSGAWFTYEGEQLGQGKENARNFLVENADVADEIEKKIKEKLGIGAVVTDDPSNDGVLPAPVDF
Kind of data set: Fluorescence Cell-Free Homogeneous Dose Retest to Identify Inhibitors of RecA-Intein Splicing Activity. [Related pubchem assays (depositor defined):AID2097, AID2223, AID489010, AID492950]. Format: functional.

The nature of data set [7]: A cytotoxicity screen of small molecule inhibitors of the PhoP region in Salmonella typhi identified in the primary screen. [Related pubchem assays: 1850, 1864, 1985 ]. It is filed as functional.
A short description of data set [8]: viability of uninfected HEp-2 cells – cell-based, HTS, cytotoxicity control for RSV inhibitor project, dose response (AID 2410). Format: functional. The conditions noted are these: human respiratory syncytial virus.
For another data set, the system named is HeLa. Kind of data set: ATP-based viability loss in HeLa cells – cell-based, CellTiter-Glo luminescence, cherry-pick samples, cytotoxicity control for MITF activator project, dose response (AID 540259). The conditions noted are these: Homo sapiens. It is filed as functional.
A further data set has as its target Cytochrome P450 2C19 (Homo sapiens, UniProt P33261). Kind of data set: Cytochrome panel assay with activity outcomes. Panel member name: p450-cyp2c19 Compounds with AC50 equal or less than 10 uM are considered active. It is filed as functional. The conditions noted are these: read-out: AC50.
Another data set addresses Genome polyprotein (dengue virus type 2, UniProt P29990). As to the kind of experiment: flavivirus cap methylation enzyme inhibition – biochemical, confirmation dose response, primary screen (AID 588689). It is filed as functional.
A short description of data set [9]: Luminescence Cell-Based Dose Retest to Confirm Inhibitors of Cancer Stem Cells. [Related pubchem assays (depositor defined):AID2717, AID2721]. The settings on record: Homo sapiens. It is filed as functional.

Cytochrome P450 2C9, sequence (P11712 whole entry): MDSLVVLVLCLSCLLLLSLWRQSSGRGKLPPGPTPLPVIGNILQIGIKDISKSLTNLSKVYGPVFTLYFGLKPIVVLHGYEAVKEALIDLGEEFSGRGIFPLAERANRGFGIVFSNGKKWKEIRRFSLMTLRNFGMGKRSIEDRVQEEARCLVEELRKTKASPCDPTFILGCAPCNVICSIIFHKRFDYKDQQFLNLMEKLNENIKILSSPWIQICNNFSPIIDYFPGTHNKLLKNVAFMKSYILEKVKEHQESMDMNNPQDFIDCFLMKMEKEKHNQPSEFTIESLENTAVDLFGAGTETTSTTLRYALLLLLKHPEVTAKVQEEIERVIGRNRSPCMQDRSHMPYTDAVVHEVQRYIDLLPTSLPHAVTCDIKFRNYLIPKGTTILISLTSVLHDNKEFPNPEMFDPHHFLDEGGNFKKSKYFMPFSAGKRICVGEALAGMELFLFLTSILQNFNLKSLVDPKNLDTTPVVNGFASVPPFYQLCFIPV
G-protein coupled receptor 55, sequence (Q9Y2T6 whole entry): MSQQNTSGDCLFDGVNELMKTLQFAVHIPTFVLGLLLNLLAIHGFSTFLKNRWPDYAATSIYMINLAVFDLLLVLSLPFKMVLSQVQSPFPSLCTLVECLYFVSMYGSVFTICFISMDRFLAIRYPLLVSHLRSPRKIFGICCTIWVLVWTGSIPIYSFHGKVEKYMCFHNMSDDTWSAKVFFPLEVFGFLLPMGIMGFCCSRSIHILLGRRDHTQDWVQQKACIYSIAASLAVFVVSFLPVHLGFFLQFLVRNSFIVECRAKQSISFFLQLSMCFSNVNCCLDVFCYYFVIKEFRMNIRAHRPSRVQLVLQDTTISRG
Cytochrome P450 3A4, sequence (P08684 whole entry): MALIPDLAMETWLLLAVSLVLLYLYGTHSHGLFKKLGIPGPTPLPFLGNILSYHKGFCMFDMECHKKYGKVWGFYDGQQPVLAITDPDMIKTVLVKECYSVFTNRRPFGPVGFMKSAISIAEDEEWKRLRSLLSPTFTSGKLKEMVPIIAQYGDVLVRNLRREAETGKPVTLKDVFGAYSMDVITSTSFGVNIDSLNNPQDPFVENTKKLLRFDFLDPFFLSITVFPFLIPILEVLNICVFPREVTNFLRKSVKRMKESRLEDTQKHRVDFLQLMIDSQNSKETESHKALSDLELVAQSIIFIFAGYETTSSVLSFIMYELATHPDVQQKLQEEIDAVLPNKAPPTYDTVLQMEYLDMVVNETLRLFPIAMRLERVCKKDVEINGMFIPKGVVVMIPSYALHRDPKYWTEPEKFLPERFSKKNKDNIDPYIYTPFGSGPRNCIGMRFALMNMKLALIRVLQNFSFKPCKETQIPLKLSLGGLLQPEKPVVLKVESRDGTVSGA
Cytochrome P450 2C19, sequence (P33261 whole entry): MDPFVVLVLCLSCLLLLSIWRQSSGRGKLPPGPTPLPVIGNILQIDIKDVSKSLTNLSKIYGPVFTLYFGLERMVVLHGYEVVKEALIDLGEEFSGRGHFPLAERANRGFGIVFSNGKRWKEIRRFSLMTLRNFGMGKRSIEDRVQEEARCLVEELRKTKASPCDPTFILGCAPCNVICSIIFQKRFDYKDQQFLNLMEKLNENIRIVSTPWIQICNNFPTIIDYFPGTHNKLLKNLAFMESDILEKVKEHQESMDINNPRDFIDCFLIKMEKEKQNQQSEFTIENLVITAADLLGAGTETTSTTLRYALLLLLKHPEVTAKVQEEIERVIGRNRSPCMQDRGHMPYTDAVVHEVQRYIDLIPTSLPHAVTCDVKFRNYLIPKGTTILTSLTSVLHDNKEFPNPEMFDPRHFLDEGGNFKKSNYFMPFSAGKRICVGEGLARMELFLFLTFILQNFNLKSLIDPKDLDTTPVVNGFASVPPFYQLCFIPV
Genome polyprotein, sequence (P29990 2492-3391 limits assumed): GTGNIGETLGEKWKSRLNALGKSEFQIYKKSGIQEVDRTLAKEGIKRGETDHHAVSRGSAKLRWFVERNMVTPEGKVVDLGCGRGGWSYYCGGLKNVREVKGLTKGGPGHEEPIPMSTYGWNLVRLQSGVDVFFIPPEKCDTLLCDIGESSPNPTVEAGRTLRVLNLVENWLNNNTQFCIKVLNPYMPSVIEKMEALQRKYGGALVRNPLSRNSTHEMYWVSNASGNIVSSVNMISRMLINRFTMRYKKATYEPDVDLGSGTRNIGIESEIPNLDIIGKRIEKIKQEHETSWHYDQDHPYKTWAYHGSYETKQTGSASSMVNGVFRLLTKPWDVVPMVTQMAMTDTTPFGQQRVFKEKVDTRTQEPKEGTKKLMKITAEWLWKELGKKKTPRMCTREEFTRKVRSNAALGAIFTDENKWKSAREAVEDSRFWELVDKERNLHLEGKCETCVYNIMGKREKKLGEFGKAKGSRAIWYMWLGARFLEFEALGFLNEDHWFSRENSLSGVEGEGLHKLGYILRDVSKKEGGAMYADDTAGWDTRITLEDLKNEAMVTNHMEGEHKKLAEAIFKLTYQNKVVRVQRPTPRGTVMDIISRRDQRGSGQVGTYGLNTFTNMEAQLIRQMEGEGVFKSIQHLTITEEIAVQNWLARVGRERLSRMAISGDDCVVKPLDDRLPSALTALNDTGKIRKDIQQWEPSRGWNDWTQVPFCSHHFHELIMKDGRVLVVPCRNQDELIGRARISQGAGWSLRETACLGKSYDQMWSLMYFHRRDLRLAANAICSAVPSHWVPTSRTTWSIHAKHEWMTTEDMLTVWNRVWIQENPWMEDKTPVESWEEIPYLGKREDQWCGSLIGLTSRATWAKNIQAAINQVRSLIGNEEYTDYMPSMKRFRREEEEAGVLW
Voltage-dependent T-type calcium channel subunit alpha-1H, sequence (O95180 whole entry): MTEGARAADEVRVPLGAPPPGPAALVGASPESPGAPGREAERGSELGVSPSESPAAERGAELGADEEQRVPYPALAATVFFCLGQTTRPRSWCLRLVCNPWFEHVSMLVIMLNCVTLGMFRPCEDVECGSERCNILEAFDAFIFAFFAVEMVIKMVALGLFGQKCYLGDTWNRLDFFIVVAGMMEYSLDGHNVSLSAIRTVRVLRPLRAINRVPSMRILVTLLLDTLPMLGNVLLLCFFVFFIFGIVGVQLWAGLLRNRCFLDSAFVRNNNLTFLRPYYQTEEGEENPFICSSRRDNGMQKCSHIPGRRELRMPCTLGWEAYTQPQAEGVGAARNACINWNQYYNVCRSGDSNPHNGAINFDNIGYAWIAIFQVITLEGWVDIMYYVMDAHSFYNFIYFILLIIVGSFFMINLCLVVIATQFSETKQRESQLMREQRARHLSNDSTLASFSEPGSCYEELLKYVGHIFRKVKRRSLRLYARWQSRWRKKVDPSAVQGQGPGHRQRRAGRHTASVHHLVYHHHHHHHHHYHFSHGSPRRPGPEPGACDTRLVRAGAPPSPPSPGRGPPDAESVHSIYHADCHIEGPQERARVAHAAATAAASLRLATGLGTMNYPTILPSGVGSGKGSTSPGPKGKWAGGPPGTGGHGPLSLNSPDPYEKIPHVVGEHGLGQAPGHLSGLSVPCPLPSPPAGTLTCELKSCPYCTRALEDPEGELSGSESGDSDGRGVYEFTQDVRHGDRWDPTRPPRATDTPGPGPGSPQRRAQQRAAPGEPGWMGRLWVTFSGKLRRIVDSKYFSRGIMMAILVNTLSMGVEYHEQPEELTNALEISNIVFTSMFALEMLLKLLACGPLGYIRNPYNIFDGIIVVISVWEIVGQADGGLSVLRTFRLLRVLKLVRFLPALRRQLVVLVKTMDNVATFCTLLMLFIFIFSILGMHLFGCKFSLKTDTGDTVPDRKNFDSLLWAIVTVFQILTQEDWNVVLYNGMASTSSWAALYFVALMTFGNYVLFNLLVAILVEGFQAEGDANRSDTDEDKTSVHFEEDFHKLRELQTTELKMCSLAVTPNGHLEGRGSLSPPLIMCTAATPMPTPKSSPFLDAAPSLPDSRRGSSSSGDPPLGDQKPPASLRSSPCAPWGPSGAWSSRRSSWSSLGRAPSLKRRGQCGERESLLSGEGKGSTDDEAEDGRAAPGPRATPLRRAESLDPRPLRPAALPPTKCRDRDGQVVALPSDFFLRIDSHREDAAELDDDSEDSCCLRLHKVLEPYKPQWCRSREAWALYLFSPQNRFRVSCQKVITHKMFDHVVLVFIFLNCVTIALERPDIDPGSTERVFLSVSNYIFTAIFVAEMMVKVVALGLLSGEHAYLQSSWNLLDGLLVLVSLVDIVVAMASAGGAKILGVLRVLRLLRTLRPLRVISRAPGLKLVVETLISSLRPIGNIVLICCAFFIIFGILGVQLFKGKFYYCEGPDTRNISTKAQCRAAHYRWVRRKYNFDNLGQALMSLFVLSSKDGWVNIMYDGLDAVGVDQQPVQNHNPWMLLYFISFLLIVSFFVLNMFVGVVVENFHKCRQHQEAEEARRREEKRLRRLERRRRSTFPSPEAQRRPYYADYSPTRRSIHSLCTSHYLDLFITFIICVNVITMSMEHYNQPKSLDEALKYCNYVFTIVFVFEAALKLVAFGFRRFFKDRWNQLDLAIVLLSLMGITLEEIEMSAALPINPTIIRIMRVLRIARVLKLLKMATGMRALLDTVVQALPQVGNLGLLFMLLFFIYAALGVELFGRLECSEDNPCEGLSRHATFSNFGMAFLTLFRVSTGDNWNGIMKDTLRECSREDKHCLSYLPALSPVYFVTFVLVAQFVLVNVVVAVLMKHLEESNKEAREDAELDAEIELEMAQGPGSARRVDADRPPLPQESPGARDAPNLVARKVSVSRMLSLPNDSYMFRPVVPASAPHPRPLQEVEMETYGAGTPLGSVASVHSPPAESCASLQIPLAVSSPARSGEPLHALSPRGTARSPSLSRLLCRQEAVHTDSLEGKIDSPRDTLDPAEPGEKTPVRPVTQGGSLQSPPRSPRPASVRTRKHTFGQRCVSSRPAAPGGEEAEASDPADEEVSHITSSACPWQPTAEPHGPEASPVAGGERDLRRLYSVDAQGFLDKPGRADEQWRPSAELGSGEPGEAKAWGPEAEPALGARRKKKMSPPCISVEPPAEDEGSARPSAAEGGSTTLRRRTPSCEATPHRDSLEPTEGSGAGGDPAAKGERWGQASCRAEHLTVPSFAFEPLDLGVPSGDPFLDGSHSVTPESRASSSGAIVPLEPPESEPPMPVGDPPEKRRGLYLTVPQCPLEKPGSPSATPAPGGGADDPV

For `CN(C)c1ncc2nc(-c3cc(F)cc(F)c3)c(=O)n(Cc3ccc(F)cc3)c2n1`, the AC50 is 31.6 µM (inconclusive) at Cytochrome P450 3A4 and “inconclusive” on Cytochrome P450 2C9.

Turning to `O=C(c1ccccc1)N1N=C(c2cccs2)CC1c1ccccc1O` (stereo not drawn), in data set [1], the half-maximal inhibitory concentration (IC50) was 2.72 µM (active).

For `O=C(NCCCN1CCOCC1)c1ccc2c(=O)n(-c3ccc(F)c(Cl)c3)c(=S)[nH]c2c1`, in data set [2], the IC50 was 11.5 µM (active).

For `COc1ccc(OC)c(NC(=O)CSCc2cnn(-c3ccccc3)c2-n2cccc2)c1`, in data set [3], the EC50 was 4.18 µM (active). In addition, the AC50 at Cytochrome P450 1A2 was 25.1 µM (inconclusive); at Cytochrome P450 2C9, “inconclusive”.

Regarding `CC(C)(C)n1nnnc1C(c1cccs1)N(Cc1cccnc1)Cc1ccccc1Cl` (stereo not drawn), the EC50 in data set [4] is 0.684 µM (active); in data set [6], 15.1 µM (active); on Protein RecA it was 59 µM (active). For the same compound, the IC50 in [1] was 3.57 µM (active). In addition, in data set [5], the AC50 was > 120 µM (inactive).

As to `Cc1ccc(-n2cc(CN3CCN(Cc4nccn4C)CC3)c(-c3ccc(F)cc3)n2)cc1`, the IC50 in [2] is 10.1 µM (active).

Take `CCCC(=O)Nc1cccc(NC(=O)c2ccc([N+](=O)[O-])cc2Cl)c1`: in data set [2], the IC50 is 15.1 µM (active).

As to `Cc1ccc(C)c(Nc2cc(C)nc3ccccc23)c1`, the concentration giving a half-maximal response (EC50) in data set [7] was > 50 µM (active). Also, in data set [8], the CC50 is 16.9 µM (active).

Turning to `Cc1cc(O)c2cc(Cl)ccc2n1`, on Cytochrome P450 2C9, the concentration at half-maximal activity (AC50) entry is given as “inconclusive”.

As for `COc1ccc2c(c1)CCc1c(C(=O)NCC(C)C)noc1-2`, the half-maximal activity concentration (AC50) in the data set on HeLa was 55.1 µM (active).

In the case of `Cc1ccc(Nc2cc(C)nc(-c3ccccc3)n2)cc1`, the AC50 in the data set on HeLa is 36.7 µM (active).

For the compound `Cn1c(=O)oc2cc(S(=O)(=O)NCCC(=O)N3CC=C(c4ccccc4)CC3)ccc21`, the AC50 on Cytochrome P450 1A2 was 31.6 µM (inconclusive); at Cytochrome P450 2C9, “inconclusive”.

Take `CCOCCCN1C(=O)CN(C2CCCCCC2)C(=O)C1c1ccc(OC)cc1` (stereo not drawn): the values for the AC50 at Cytochrome P450 2C19 and at Cytochrome P450 2C9 were 25.1 µM (inconclusive) and “inconclusive”, respectively.

`CSc1nnc(-c2sccc2OCc2ccccc2)n1C`: in [1], the half-maximal inhibitory concentration (IC50) is 2.71 µM (active).

As for `O=C(NC1CC1)c1sc2cc(Cl)ccc2c1Cl`, the AC50 in the data set with HeLa was 69.3 µM (active).

As to `CNC(=O)c1ccc(-c2cc3onc(-c4ccccc4)c3c(=O)n2C)cc1`, the AC50 with HeLa is 44.9 µM (active).

For the compound `CC1=NC(C)(C)Cc2cc(C)c(C)cc21`, the half-maximal inhibitory concentration (IC50) in [2] is 13.2 µM (active).

For `Cc1[nH]n(-c2ccccc2)c(=O)c1C(c1cccc([N+](=O)[O-])c1O)c1c(C)[nH]n(-c2ccccc2)c1=O`, at Genome polyprotein, the IC50 was 31.6 µM (active). The figures for the EC50 (in data set [7]; on Protein RecA) were > 50 µM (active) and 0.931 µM (active), respectively. Besides, the AC50 in data set [5] was 1.15 µM (active).

For the compound `N#Cc1c(/N=C/N2CCCC2)oc(-c2ccccc2)c1-c1ccccc1`, in [9], the AC50 was 1.67 µM (active). In addition, the half-inhibitory concentration (IC50) in data set [1] was 0.558 µM (active).
